Results published in US20100029761A1, “NOVEL COMPOUNDS, PHARMACEUTICAL COMPOSITIONS CONTAINING SAME, AND METHODS OF USE FOR SAME” (priority 2005, published 2010).
Values after ≈ are worked out from the molar mass of the structure shown.

Columns and labels:
[1] = tested on: MCF-7 human breast cancer cells; test: XTT cytotoxicity assay (M); assay type: cell-based; conditions: MCF7, MCF-7, 72 hours
Description: The XTT assay is a non-radioactive alternative for the [^51Cr] release cytotoxicity assay. XTT is a tetrazolium salt that is reduced to a formazan dye only by metabolically active, viable cells. The reduction of XTT is measured spectrophotometrically as OD490-OD650. To measure the cytotoxicity of specific compounds against cancer cells, 9×10^3 MCF-7 human breast cancer cells, obtained from the American Type Culture Collection are plated per well in 96 well plates in DMEM medium with 10% fetal bovine serum, insulin, penicillin, and streptomycin. Following overnight culture at 37° C. and 5% CO2, the compounds to be tested, dissolved in DMSO, are added to the wells in 1 μl volume at the following concentrations: 80, 40, 20, 10, 5, 2.5, 1.25, and 0.625 μg/ml in triplicate. Additional concentrations are tested if required. 1 μl of DMSO is added to triplicate wells are the vehicle control. C75 is run at 40, 20, […], and 5 μg/ml in triplicate as positive controls. After 72 hours of incubation, cells are incubated for 4 hours with the XTT reagent as per manufacturer's instructions (Cell Proliferation Kit II (XTT) Roche). Plates are read at OD490 and OD650 on a Molecular Devices SpectraMax Plus Spectrophotometer. Three wells containing the XTT reagent without cells serve as the plate blank. XTT data are reported as OD490-OD650. Averages and standard error of the mean are computed using SOFTmax Pro software (Molecular Dynamics). The IC50 for the compounds is defined as the concentration of drug leading to a 50% reduction in OD490-OD650 compared to controls. The OD490-OD650 are computed by the SOFTmax PRO software (Molecular Devices) for each compound concentration. IC50 is calculated by linear regression, plotting the FAS activity as percent of control versus drug concentrations. Linear regression, best-fit line, r^2, and 95% confidence intervals are determined using Prism Version 3.0 (Graph Pad Software).

[2] = tested on: β-Oxidation of (1-14C) palmitic acid in cells; test: β-Oxidation assay, isolation of acid soluble products; assay type: cell-based; parameters: unit not given here
Description: A 24 well plate with 1 ml per well was prepared with 2.5×10^5 cells /well. The cells were incubated O/N. The next day, a solubilized palmitate solution was prepared. 50 μls of (1−^14C) Palmitic acid was added to a 2 ml centrifuge tube and dried under nitrogen gas. 2 mls of α-CD (α-Cyclodextran)—10 mg/ml in 10 mM Tris were added. This solution was incubated in a 37° C. water bath for 30 minutes. A hot mix was prepared by adding 25 μl of this solution to 2.5 μls of 200 μM Carnitine and 222.5 μl of serum free medium that is used for cells. The cells were then treated with the test compound in triplicate, and incubated. at 37° C. for 60 minutes. The medium was removed and 250 μl of the hot mix were added. The test compound was added again, and further incubated at 37° C. for 60 minutes. The reaction was stopped with 50 μl of 2.6 N HClO4. The contents of the plate were transferred to a 1.5 ml centrifuge tube, and 50 μl of 4N KOH were then added, and the tube incubated in a 60° C. water bath for 30 min. Sodium acetate (1 M, 75 μl) and sulfuric acid (3N, 50 μl) were added to the solution and vortexed. The tube was spun for 7 minutes at 1000 rpm at room temperature. A portion (225 μl) was removed, and the following were added (vortex after each addition, twice at the end): 938 μl of 1:1 Chloroform: Methanol; 468 μl of Chloroform; 281 μl distilled Water. The tubes were spun at 1000 rpm for 5 minutes. The upper phase was removed into a large glass scintillation vial and 5 ml of Budget solvent (scintillation liquid) was added. The tubes were well vortexed. Finally, ^14C was counted for one minute.

With CCCCC1OC(=O)C(O)=C1C(=O)OCC (centres unmarked) [Compound 2] the IC50 [1] was > 80 µg/mL, the Beta oxidation ([2]; 0.19 ug/ml) was 102 and the Beta oxidation ([2]; 0.39 ug/ml) was 102. For the same molecule, the Beta oxidation ([2]; 1.56 ug/ml) was 112, the Beta oxidation ([2]; 12.5 ug/ml) was 108 and the Beta oxidation ([2]; 50 ug/ml) was 45. The Beta oxidation ([2]; .78 ug/ml) was 107.
In the case of CCCCCCCCC1OC(=O)C(OC)=C1C(=O)OCC (centres unmarked) [Compound 4], the IC50 [1] is reported as 25.3 ± 1.5 µg/mL (≈ 84.8 µM), the Beta oxidation ([2]; 1.25 ug/ml) is reported as 112 and the Beta oxidation ([2]; 2.5 ug/ml) is reported as 119. The Beta oxidation ([2]; 5 ug/ml) was 116 and the Beta oxidation ([2]; 10 ug/ml) was 104.
For C=CCOC1=C(C(=O)OCC)C(CCCCCCCC)OC1=O (centres unmarked) [Compound 6], the IC50 [1] was > 80 µg/mL, the Beta oxidation ([2]; 1.25 ug/ml) was 118 and the Beta oxidation ([2]; 2.5 ug/ml) was 125. The Beta oxidation ([2]; 5 ug/ml) was 112 and the Beta oxidation ([2]; 10 ug/ml) was 101.
CCCCCCCCC1OC(=O)C(=O)C1C(=O)OCC (centres unmarked) [Compound 1] gave an IC50 [1] of 33.7 ± 14.6 µg/mL (≈ 119 µM).
With CCCCCCCCC1OC(=O)C(OCc2ccccc2)=C1C(=O)OCC (centres unmarked) [Compound 5] the IC50 [1] was > 80 µg/mL, the Beta oxidation ([2]; 1.25 ug/ml) was 108 and the Beta oxidation ([2]; 2.5 ug/ml) was 101. For the same molecule, the Beta oxidation ([2]; 5 ug/ml) was 115 and the Beta oxidation ([2]; 10 ug/ml) was 74.
CCCCCCCCC1OC(=O)C(OCC(=O)OCC)=C1C(=O)OCC (centres unmarked) [Compound 3] was tested, and the IC50 [1] was 26.7 ± 5.3 µg/mL (≈ 72.1 µM), the Beta oxidation ([2]; 1.25 ug/ml) was 113 and the Beta oxidation ([2]; 2.5 ug/ml) was 131. For the same molecule, the Beta oxidation ([2]; 5 ug/ml) was 138 and the Beta oxidation ([2]; 10 ug/ml) was 79.
CCCCCCCCC1OC(=O)C(OC(=O)OCC)=C1C(=O)OCC (centres unmarked) [Compound 7] gave an IC50 [1] of 7.7 µg/mL (≈ 21.6 µM), a Beta oxidation ([2]; 0.09 ug/ml) of 99 and a Beta oxidation ([2]; 0.39 ug/ml) of 107. For the same molecule, the Beta oxidation ([2]; 1.56 ug/ml) was 113, the Beta oxidation ([2]; 6.25 ug/ml) was 146 and the Beta oxidation ([2]; 25 ug/ml) was 131. The Beta oxidation ([2]; 100 ug/ml) was 54.
